From PMC12736958 (Pharmaceutics, 2025)
≈ marks a conversion by molar mass, not a printed value. Read-outs that look alike come from different tables or passages of the source.

How the values were obtained:
[1] = equilibrium solubility of crystalline Cur in excipient solutions; assay type: physicochemical; conditions: read-out: equilibrium solubility (Cur con.)
Description: Excess crystalline Cur was suspended in each solution, vortexed (1 min), sonicated (10 min), and incubated (37 °C, 24 h). After incubation, suspensions were filtered (0.22 μm), and Cur concentration in the filtrate was quantified using HPLC/UV-Vis (HPLC/UV-Vis Method section). All experiments were performed in quadruplicate (n = 4).
Cur content in in vitro dissolution samples was quantified using a Waters 2695 Alliance HPLC system (Waters Corporation, Milford, MA, USA) equipped with a Waters 2998 photodiode array (PDA) detector. Separation was performed on an XBridge® C18 column (4.6 × 250 mm, 5.0 μm; Waters) maintained at 25 °C. The mobile phase, composed of water and methanol (80:20, v/v), was delivered isocratically at a flow rate of 1.0 mL/min. The injection volume was 10 μL, and detection was performed at 430 nm, and Cur eluted at approximately 4.80 min. […] All data were acquired in triplicate (n = 3) and processed using Empower®3 Software (Waters).

[2] = cytotoxicity assay (CCK-8 cell viability); assay type: cell-based, canine; conditions: dog, MDCK cells, pH 7.4, MDCK cells, 4 h treatment, read-out: IC50 (cytotoxicity, Cur-equivalent)
Description: Madin-Darby Canine Kidney (MDCK) cells were seeded in 96-well plates (1 × 10^5 cells/well) and cultured for 24 h at 37 °C in complete DMEM (10% FBS, 1% penicillin–streptomycin) under 5% CO2. Cells were treated for 4 h with 100 µL of complete DMEM media (pH 7.4) containing crystalline Cur, amorphous Cur, binary Cur/P188 ASD (1:8, w/w), or ternary Cur/P188/TW80 or Cur/P188/SLS ASDs (1:8:1, w/w/w), at Cur-equivalent concentrations of 0 (vehicle), 2, 10, 25, 50, 100, and 200 μg/mL. After treatment, cells were washed three times with PBS (pH 7.4). Cell viability was assessed using a CCK-8 assay: 100 µL of serum-free DMEM and 10 µL of CCK-8 reagent were added to each well, followed by incubation for 2 h. Absorbance was measured at 450 nm using a Multiskan GO microplate reader (Thermo Fisher Scientific, Vantaa, Finland).
Cell viability was calculated according to the following equation:Viability (%) = [(As − Aᵦ)/(Ac − Aᵦ)] × 100% where
• As is the absorbance of experimental wells (cells + treatment + CCK-8); • Ac is the absorbance of control wells (cells + medium + CCK-8, no drug); • Aᵦ is the absorbance of blank wells (medium + CCK-8, no cells, no drug).
All experiments were performed in quintuplicate (n = 5).

Q: What does the source list for COc1cc(/C=C/C(=O)CC(=O)/C=C/c2ccc(O)c(OC)c2)ccc1O [Crystalline Cur, Curcumin]?
A: solubility thermodynamic at 24 h ([1]; aqueous P188/SLS solution (8 mg/mL + 1 mg/mL), pH 7, aqueous with cosolvent or surfactant or cyclodextrin, thermodynamic from solid, P188/SLS 8 mg/mL + 1 mg/mL in water, 37 °C): 8.5 µg/mL; solubility thermodynamic at 24 h ([1]; aqueous P188/TW80 solution (8 mg/mL + 1 mg/mL), pH 7, aqueous with cosolvent or surfactant or cyclodextrin, thermodynamic from solid, P188/TW80 8 mg/mL + 1 mg/mL in water, 37 °C): 10.3 µg/mL; solubility thermodynamic at 24 h ([1]; aqueous P188 solution (8 mg/mL), pH 7, P188 8 mg/mL in water, 37 °C): < 0.1 µg/mL; solubility thermodynamic at 24 h ([1]; aqueous SLS solution (1 mg/mL), pH 7, SLS 1 mg/mL in water, 37 °C): < 0.1 µg/mL; solubility thermodynamic at 24 h ([1]; aqueous TW80 solution (1 mg/mL), pH 7, aqueous with cosolvent or surfactant or cyclodextrin, thermodynamic from solid, TW80 1 mg/mL in water, 37 °C): 9.1 µg/mL (≈ 24.7 µM); solubility thermodynamic at 24 h ([1]; thermodynamic from solid, pure water, pH 7.0, 37 °C, filtered 0.22 μm): < 0.1 µg/mL; IC50 at 4 h [2]: 82.2 µg/mL
